Experimental data published in patent US9642859B2, “Use of capsazepine and analogs thereof to treat cancer” (THE BOARD OF REGENTS OF THE UNIVERSITY OF TEXAS SYSTEM, priority 2012, dated 2017).
Like-named read-outs stand apart in the source and are kept apart here.

Legend:
TRPM8 [1] = target: T1, TRPM8 (Homo sapiens, UniProt Q7Z2W7); settings: cited from earlier work
Target sequence in this assay (Q7Z2W7 whole entry, species assumed): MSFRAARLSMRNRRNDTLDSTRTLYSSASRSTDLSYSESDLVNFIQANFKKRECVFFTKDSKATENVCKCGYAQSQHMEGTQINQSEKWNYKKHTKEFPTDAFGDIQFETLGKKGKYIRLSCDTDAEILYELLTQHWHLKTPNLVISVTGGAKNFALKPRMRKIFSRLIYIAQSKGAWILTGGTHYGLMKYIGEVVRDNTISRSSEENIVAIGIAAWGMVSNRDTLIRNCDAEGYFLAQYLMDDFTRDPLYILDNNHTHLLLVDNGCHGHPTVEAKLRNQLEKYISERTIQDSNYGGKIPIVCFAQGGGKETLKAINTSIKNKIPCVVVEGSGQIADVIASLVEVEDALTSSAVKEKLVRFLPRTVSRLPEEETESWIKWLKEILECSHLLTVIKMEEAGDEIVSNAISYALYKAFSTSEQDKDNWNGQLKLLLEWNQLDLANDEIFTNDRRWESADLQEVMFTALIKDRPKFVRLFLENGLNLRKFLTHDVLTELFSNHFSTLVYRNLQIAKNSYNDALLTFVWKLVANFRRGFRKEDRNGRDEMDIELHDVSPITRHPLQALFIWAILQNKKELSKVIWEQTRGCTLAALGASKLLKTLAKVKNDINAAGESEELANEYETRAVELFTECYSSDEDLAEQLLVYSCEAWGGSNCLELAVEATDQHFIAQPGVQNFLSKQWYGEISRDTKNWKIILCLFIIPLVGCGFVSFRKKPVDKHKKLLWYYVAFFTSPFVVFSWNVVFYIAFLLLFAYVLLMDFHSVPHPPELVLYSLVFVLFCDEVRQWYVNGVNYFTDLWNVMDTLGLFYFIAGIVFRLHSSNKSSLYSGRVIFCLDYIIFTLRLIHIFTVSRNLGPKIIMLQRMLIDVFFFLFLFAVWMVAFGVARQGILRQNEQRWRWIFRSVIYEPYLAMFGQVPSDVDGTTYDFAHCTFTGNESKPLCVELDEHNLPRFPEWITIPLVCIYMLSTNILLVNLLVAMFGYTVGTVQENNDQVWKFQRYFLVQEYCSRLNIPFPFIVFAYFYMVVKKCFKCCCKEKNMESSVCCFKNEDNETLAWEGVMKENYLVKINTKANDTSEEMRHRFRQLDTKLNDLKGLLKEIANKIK

[2] = tested on: CFA-induced thermal hyperalgesia; settings: cited from earlier work
TRPA1 [3] = target: T2, TRPA1 (Homo sapiens, UniProt O75762); settings: cited from earlier work
Target sequence in this assay (O75762 whole entry, species assumed): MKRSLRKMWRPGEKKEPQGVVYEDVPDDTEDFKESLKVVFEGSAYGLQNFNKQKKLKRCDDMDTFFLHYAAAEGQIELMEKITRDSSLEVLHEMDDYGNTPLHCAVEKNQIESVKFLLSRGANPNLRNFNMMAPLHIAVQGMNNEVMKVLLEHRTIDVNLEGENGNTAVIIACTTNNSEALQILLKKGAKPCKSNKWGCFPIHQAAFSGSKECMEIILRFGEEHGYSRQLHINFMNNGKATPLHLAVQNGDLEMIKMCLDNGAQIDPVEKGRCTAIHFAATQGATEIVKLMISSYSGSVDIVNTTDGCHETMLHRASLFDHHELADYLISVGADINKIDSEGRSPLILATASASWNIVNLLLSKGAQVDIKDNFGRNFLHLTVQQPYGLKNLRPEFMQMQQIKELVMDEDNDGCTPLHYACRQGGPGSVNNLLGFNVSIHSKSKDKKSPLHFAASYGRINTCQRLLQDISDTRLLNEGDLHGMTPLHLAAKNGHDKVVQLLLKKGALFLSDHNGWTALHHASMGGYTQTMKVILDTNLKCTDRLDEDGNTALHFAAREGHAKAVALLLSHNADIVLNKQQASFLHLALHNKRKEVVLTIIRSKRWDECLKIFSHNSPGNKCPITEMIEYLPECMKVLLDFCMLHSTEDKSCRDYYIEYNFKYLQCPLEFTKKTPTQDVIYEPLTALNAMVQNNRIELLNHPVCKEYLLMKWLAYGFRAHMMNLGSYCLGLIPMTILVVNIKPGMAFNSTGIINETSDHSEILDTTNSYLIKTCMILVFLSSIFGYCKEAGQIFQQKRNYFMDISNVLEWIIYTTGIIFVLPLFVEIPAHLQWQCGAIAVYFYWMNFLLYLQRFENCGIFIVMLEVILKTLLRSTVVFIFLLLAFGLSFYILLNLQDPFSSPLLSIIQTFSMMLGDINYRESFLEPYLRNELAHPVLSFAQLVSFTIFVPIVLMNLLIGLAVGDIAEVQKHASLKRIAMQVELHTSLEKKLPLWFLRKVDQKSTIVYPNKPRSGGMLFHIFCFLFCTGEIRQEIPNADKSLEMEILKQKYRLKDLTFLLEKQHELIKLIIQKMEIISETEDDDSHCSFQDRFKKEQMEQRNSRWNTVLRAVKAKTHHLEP

TRPA1 [4] = target: T2, TRPA1; settings: read-out: hIC50 at TRPA1; cited from earlier work
Target sequence in this assay (O75762 whole entry): as the sequence (O75762 whole entry, species assumed) above

[5] = tested on: CFA-induced mechanical hyperalgesia; settings: cited from earlier work
TRPV4 = TRPV4 (Homo sapiens, UniProt Q9HBA0); settings: read-out: hIC50 at TRPV4; cited from earlier work
Chain of TRPV4 (Q9HBA0 whole entry): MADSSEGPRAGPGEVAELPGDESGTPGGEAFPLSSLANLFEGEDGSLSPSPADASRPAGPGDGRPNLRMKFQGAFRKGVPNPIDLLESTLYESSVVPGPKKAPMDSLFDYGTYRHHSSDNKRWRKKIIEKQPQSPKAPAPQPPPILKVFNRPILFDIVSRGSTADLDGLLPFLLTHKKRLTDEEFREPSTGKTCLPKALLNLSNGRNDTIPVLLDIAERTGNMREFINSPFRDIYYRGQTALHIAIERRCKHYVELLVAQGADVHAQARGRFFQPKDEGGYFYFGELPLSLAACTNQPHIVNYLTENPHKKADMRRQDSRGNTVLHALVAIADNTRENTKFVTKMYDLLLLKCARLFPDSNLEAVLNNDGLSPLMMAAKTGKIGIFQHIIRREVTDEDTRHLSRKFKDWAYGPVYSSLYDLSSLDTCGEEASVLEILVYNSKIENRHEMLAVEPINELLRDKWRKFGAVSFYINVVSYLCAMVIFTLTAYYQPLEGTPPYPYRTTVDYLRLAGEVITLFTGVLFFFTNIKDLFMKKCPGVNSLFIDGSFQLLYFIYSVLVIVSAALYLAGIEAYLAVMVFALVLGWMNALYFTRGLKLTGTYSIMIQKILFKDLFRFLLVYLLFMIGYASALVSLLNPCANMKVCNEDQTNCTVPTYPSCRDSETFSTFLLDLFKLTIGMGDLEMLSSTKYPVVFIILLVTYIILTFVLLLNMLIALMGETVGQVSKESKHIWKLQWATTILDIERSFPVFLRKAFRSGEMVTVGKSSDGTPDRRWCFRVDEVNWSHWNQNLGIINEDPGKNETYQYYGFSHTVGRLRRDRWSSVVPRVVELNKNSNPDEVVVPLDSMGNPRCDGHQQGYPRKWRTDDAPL

TRPV3 = TRPV3 (Homo sapiens, UniProt Q8NET8); settings: read-out: hIC50 at TRPV3; cited from earlier work
Chain of TRPV3 (Q8NET8 whole entry): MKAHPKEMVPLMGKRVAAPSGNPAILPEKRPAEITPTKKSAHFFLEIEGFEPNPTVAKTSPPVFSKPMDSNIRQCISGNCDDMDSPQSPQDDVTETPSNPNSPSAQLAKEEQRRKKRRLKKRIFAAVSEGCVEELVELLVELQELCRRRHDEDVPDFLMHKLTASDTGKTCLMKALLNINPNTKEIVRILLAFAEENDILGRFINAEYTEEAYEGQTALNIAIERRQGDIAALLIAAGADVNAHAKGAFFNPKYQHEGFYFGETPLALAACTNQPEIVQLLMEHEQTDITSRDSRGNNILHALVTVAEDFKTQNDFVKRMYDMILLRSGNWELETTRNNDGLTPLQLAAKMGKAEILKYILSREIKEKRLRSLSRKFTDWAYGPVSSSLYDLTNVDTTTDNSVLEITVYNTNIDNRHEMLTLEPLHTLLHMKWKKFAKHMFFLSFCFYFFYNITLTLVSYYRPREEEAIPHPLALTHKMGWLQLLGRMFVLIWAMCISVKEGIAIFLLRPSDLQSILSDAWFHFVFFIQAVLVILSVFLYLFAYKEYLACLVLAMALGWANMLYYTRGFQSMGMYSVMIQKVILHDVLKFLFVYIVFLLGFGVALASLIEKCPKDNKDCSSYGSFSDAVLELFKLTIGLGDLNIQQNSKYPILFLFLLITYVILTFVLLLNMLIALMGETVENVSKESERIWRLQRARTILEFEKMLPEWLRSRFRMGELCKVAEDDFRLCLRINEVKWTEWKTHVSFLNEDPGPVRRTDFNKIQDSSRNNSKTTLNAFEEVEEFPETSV

TRPM8 [6] = target: T1, TRPM8; settings: read-out: hIC50 at TRPM8; cited from earlier work
Target sequence in this assay (Q7Z2W7 whole entry): as the sequence (Q7Z2W7 whole entry, species assumed) above

[7] = tested on: partial nerve-ligation model; settings: cited from earlier work
[8] = tested on: immortalized human bronchiolar epithelial cell line transformed with a TRPV1 insert; settings: TRPV1-overexpressing cultured cells, treatment with CAP; cited from earlier work
[9] = tested on: OSCC cell lines (HSC3, SCC4, and SCC25); experiment: Calcium imaging of OSCC cell lines; assay type: cell-based, human
Experimental: FIGS. 1J-1 to 1J-2. FIGS. 1J-1(a) to (c): […] FIGS. 1J-2(a) to (c): […] Arrow indicates time point when treatment was added. […] This was due to the toxic effects of this high capsaicin concentration which permeablized the cell membrane allowing calcium to flow freely […] the cell. This was not reversed by capsazepine. […] These finding confirm that activation of TRPV1 is not the mechanism by which cell death is induced using capsazepine.

HSC3 cells = experiment: Cell viability assay of HSC3 cells, dose response curve; assay type: cell-based; settings: Homo sapiens, HSC-3, HSC3 cells, FIG. 1K
Source text: FIG. 1K. Cell viability assay of HSC3 cells treated with increasing concentrations of curcumin; […]

[10] = tested on: OSCC cell lines (HSC3, SCC4, and SCC25)
Experimental: Cell viability assays reported as % of vehicle control (n=3). […] VEH=delivery vehicle control without CAP or CPZ. *p<0.05, ***p<0.001.
FIG. 1H-1: Cell viability assays of OSCC cell lines treated with 30 μM CPZ alone or in combination with 10 mM N-Acetyl-L-Cysteine (NAC) for 24 h (n=4); ***p<0.001.
Human OSCC Cell Lines. The human OSCC cell lines MDA231, PS3, SCC4 and SCC25 were obtained from ATCC (American Type Culture Collection, Rockville, Md.). The HSC3 cell line was obtained from the Japanese Cell Resource Bank (Osaka, Japan). […] Cells were maintained in DMEM (GIBCO, Carlsbad, Calif.) supplemented with 10% FBS at 37° C. in 5% CO2. Both cell lines were derived from primary OSCC tumors from the tongues of male patients in their fifth generation of life. Data regarding pertinent medical history, treatment, outcome of care and recurrence were not available.
Statistical Analysis. Statistical analyses were performed using GraphPad Prism4 (San Diego, Calif.). Experiments were performed in triplicate and results are represented as means+SD except when indicated. […] Cytotoxicity assays of cell viability were analyzed by one-way ANOVA and Bonferroni's post-hoc test (n=3).

OSCC cell lines = experiment: ROS assays by flow cytometry (DCF-DA); assay type: cell-based, human; settings: 1 h
Experimental: FIGS. 1I-1 to 1I-3. Reactive oxygen species (ROS) assays. The level of ROS in OSCC cell lines was examined by flow cytometry using 2,7-dichlorodihydrofluorescein diacetate (DCFH-DA; Sigma). Approximately 3×10^5 cells were plated in 12-well plates. To detect ROS, cells were incubated for 30 min at 37° C. with DCF-DA, washed and then treated for 1 h with 30 μM capsazepine (grey, thick line), 150 μM capsaicin (grey, thin line), 30 μM capsazepine+150 μM capsaicin (black line), or vehicle control (dotted line). The cells were harvested, washed twice, and analyzed by flow cytometry.
FIGS. 1I-4(a)-(b) to 1I-6(a)-(b). Induction of ROS in OSCC cell lines. (a). ROS induction in OSCC cell lines following 1 h treatment with 30 μM CPZ (black line) compared to vehicle control. (b). ROS induction in OSCC cell lines following 1 h treatment with 30 μM CPZ is reversed by NAC co-treatment (black line) as indicated in the shift in their peaks to the left.
ROS levels in OSCC cell lines were examined by flow cytometry using 2,7-dichlorodihydrofluorescein diacetate (DCF-DA; Sigma-Aldrich, St. Louis, Mo.). Cells (3×10^5) were plated in 12-well plates and incubated for 30 min with DCF-DA at 37° C. then treated with 30 μM capsazepine using phenol free media with and without 10 mM NAC. Treated cells were incubated for 1 h at 37° C., harvested, washed twice, and analyzed by FACS.

OKF6 cells = experiment: Cell viability assay of immortalized non-malignant oral keratinocytes; assay type: cell-based; settings: CAP 150 μM, 24 hours
Source text: FIG. 1D-2. […] Treatment with high concentrations of CAP induces death of normal, non-malignant OKF6 cells. The effect of which was reversed by the pre-treatment with CPZ.

TRPV1 [11] = target: T3, TRPV1 (Homo sapiens, UniProt Q8NER1); settings: read-out: hIC50 (45Ca2+ uptake); cited from earlier work
Target sequence in this assay (Q8NER1 whole entry): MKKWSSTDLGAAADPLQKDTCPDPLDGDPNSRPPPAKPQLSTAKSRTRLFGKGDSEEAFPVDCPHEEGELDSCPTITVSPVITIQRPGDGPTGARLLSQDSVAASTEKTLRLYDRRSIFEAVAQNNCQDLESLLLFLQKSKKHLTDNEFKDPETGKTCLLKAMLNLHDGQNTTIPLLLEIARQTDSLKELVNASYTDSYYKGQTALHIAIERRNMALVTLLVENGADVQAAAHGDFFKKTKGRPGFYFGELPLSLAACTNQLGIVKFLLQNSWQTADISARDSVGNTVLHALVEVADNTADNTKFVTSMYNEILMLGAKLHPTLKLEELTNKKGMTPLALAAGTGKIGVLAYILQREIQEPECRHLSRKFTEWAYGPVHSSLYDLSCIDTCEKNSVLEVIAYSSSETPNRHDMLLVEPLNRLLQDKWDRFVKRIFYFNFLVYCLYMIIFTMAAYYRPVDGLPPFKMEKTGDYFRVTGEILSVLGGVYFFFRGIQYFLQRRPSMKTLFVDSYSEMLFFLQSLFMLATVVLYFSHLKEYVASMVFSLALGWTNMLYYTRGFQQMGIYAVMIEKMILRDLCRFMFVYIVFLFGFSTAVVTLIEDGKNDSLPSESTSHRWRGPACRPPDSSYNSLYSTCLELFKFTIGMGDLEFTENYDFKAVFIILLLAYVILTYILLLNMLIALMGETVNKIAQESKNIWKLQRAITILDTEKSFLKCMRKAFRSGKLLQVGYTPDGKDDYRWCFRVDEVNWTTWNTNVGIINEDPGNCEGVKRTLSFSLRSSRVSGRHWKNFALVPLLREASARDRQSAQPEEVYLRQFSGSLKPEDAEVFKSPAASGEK

bone-cancer pain = settings: in vivo model of bone-cancer pain; cited from earlier work
[12] = rats, 30 mg per kg, orally; cited from earlier work
[13] = tested on: PC3 prostate cancer cells; experiment: Cell viability assay of PC3 cells with and without NAC; assay type: cell-based, human; settings: 10 mM NAC, prostate cancer cells
[14] = tested on: MDA231 breast cancer cells; experiment: Cell viability assay of MDA231 cells with and without NAC; assay type: cell-based, human; settings: 10 mM NAC
[15] = tested on: carrageenan-induced thermal hyperalgesia; settings: cited from earlier work
TRPV1 [16] = target: T3, TRPV1; settings: read-out: hKi (FLIPR); cited from earlier work
Target sequence in this assay (Q8NER1 whole entry): as above

[17] = tested on: TRPV4 and other TRP channels; settings: cited from earlier work
TRPV1 [18] = target: T3, TRPV1; settings: cited from earlier work
Target sequence in this assay (Q8NER1 whole entry, species assumed): as the sequence (Q8NER1 whole entry) above

[19] = tested on: capsaicin-evoked flare and acute heat-evoked pain; settings: Phase I; cited from earlier work
[20] = cited from earlier work

O=C(NCc1ccc(C(F)(F)F)cc1)Nc1cccc2cnccc12 [A-425619]
IC50 (TRPM8 [1]): 8 µM
ED50, CFA-induced thermal hyperalgesia ([2]; in vivo): 10 mg per kg
IC50 (TRPA1 [3]): > 10 µM

CC(C)(C)c1ccc(/C=C/C(=O)Nc2ccc3c(c2)OCCO3)cc1 [AMG-9810]
IC50 (TRPA1 [4]): > 4 µM
CFA-induced mechanical hyperalgesia ([5]; 100 mg per kg): Inhibits
IC50 (TRPV4): > 4 µM
IC50 (TRPV3): > 4 µM
IC50 (TRPM8 [6]): > 4 µM
CFA-induced thermal hyperalgesia ([2]; 30 mg per kg): Inhibits

CC(C)(C)c1ccc(NC(=O)N2CCN(c3ncccc3Cl)CC2)cc1 [BCTC, N-(4-tertiarybutylphenyl)-4-(3-chloropyridin-2-yl)tetrahydropyrazine-1(2H)-carboxamide]
IC50 (TRPM8 [1]): 0.143 µM
tactile allodynia [7]: Reduces
thermal hyperalgesia [7]: Reduces
CFA-induced mechanical hyperalgesia ([5]; 3-30 mg per kg, orally): Inhibits
CFA-induced thermal hyperalgesia ([2]; 3-30 mg per kg, orally): Inhibits

COc1cc(CNC(=O)CCCC/C=C/C(C)C)ccc1O [CAP, capsaicin]
apoptosis [8]: did result in apoptosis
calcium influx ([9]; 20 μM capsaicin): fails to cause an influx of calcium
calcium flow ([9]; 150 μM capsaicin (cytotoxic level)): calcium outflow occurred over a prolonged period of time
IC50 (HSC3 cells): ~150 µM
cell viability / cytotoxic effects ([10]; 30 μM, 24 hrs, HSC3, SCC4, SCC25): does not
cell viability ([10]; 150 μM, HSC3, SCC4 and SCC25): significantly reduces cell viability
level of ROS (OSCC cell lines; 150 μM capsaicin): increase in ROS
cell viability of normal, non-malignant cells (OKF6 cells): induces death

Cc1nc2cc(C(C)C)c(-c3ccc(Cl)c(OCC4CC4)c3)cc2c(=O)[nH]1 [Compound 26]
reversal of mechanical hyperalgesia [7]: 57%
reversal of CFA-induced mechanical hyperalgesia ([5]; 30 mg per kg, orally): 60%

C[C@@H]1CN(c2ncc(C(O)CO)cc2Cl)CCN1c1nc2c(-c3cc(F)c(F)c(F)c3)cc(C(F)(F)F)cc2[nH]1 (stereo partly drawn) [Compound 46ad]
IC50 (TRPV1 [11]): 0.001 µM
reversal of CFA-induced thermal hyperalgesia ([2]; 30 mg per kg, orally): significant reversal

O=C(Nc1ccc(C(F)(F)F)cn1)N1CCN(c2ncccc2C(F)(F)F)CC1 [JNJ-17203212]
nocifensive behaviors (bone-cancer pain): Attenuates
increase in core body temperature [12]: ~1 °C

CC(=O)N[C@@H](CS)C(=O)O [NAC, N-Acetyl-L-Cysteine]
effect of NAC on the effects of CPZ ([10]; 10 mM NAC, all OSCC cell lines tested): reverse significantly
ROS induction by 30 μM CPZ with NAC co-treatment (OSCC cell lines; 10 mM NAC): reversed
effect of NAC on the effects of CPZ [13]: reverse significantly
effect of NAC on the effects of CPZ [14]: reverse significantly

FC(F)(F)c1ccc(Nc2ncnc3cc(-c4ncccc4C(F)(F)F)ccc23)cc1 [Quinazoline analog]
block of carrageenan-induced thermal hyperalgesia ([15]; at 3 mg per kg): 80%
MED, carrageenan-induced thermal hyperalgesia ([15]; minimum effective dose): 0.1 mg per kg

COc1cccc(NC(=O)/C=C/c2ccc(Cl)cc2)c1 [SB-366791]
Ki (TRPV1 [16]): 0.018 µM
selectivity versus TRPV4 and other TRP channels [17]: Selective
capsaicin and heat-mediated activation of TRPV1 (TRPV1 [18]): Inhibits

O=C(Nc1ccccc1Br)N[C@@H]1CCN(c2ccc(C(F)(F)F)cn2)C1 [SB-705498]
acute heat-evoked pain on non-sensitized skin [19]: reduced
capsaicin-evoked flare [19]: reduced

COc1cc(/C=C/C(=O)CC(=O)/C=C/c2ccc(O)c(OC)c2)ccc1O [curcumin]
IC50 (HSC3 cells): 90 µM

AMG 517
body temperature increases ([20]; doses of 2 mg, in one patient): ~3 °C
hyperthermia ([20]; seen at 0.3-3 mg/kg, oral administration): up to 1.5 °C
IC50 (TRPV1 [11]): 0.0009 µM
block of CFA-induced thermal hyperalgesia ([2]; at 10 mg per kg): ~40%
MED, CFA-induced thermal hyperalgesia ([2]; minimum effective dose): 1 mg per kg
